Measurements published in patent US11491168B2, “Combination of Bcl-2/Bcl-xL inhibitors and chemotherapeutic agent and use thereof” (ASCENTAGE PHARMA (SUZHOU) CO., LTD., priority 2019, dated 2022).
Values joined by “and” are separate entries in the source; they are usually repeats but may differ in a detail not shown here. Equal entries are not always repeated. Where two headings read alike, the source gives them in different places.

Legend:
[1] = test system: AGS cells; experiment: AnnexinV/PI staining apoptosis, AGS; assay type: cell-based; settings: 48 hours, Compound 31 0.3 μM, 5-FU 3 μM
Protocol: (§1) The inventors chose to combine Compound 31 with one of the most common chemotherapeutic drugs in clinic, 5-fluorouracil (5-FU). In order to investigate the effect and the potential mechanisms of Compound 31 and 5-FU on the growth of gastric cancer cells, the inventors used the AnnexinV/PI staining to detect the apoptosis of two gastric cancer cells, AGS and NCI-N87, 48 hours after the treatment with Compound 31 (0.3 μM), 5-FU (3 μM), and the combination at specified concentrations. […] In NCI-N87 cells, the combination group also achieved a higher apoptosis rate than the mono therapy groups, Compound 31 or 5-FU as a single agent leading to apoptosis rates of 24% or 18% while the combination group reaching an apoptosis rate of 46% (FIG. 29(a)).

[2] = test system: NCI-N87 xenograft; experiment: NCI-N87 xenograft model, Compound 15 with 5-FU; settings: for mouse tumor volume upon the end point: Compound 15 50 mg/kg qd 10 days, 5-FU 25 mg/kg once a week for two weeks
[3] = test system: NCI-N87 cells; experiment: AnnexinV/PI staining apoptosis, NCI-N87; assay type: cell-based; settings: NCI-N87, 48 hours; Compound 31 0.3 μM, 5-FU 3 μM
Protocol: as §1

[4] = test system: SCLC patient-derived xenograft LU5250; experiment: LU5250 SCLC patient-derived xenograft; assay type: in vivo, female NOD.SCID mice; settings: for T/C (%) @ day 21: doses as Table 3; for RTV @day 21: mean ± SEM, Compound 15 50 mg/kg i.v. BIW, Irinotecan 10 mg/kg i.p. Q4D, Paclitaxel 10 mg/kg i.v. Q4D
Protocol: (§2) The therapeutic efficacy of compound 15 alone and its multiple combinations in the treatment of subcutaneous HuPrime® Lung cancer xenograft model LU5250 and LU5188 in female NOD.SCID mice was evaluated.
(§3) Either LU5250 or LU5188 tumor mass with rough size of 3×3×3 mm^3 were inoculated into female NOD.SCID mice and the day of randomization was denoted as day 1. The treatment was initiated on day 1 when tumors approximated a mean volume 136 mm^3 of LU5250 and 155 mm^3 of LU5188, respectively. There were 6 groups enrolled in each model eventually. See Table 3 for the mode of administration and doses. Both models were taken down on day 21.

[5] = test system: human SW620 cell line colon cancer xenograft; experiment: SW620 colon cancer xenograft model; assay type: in vivo, mice; settings: single agents: Compound 15 100 mg/kg; irinotecan 50 mg/kg
Protocol: (§4) Subcutaneous xenograft tumor model of human cancer was established in immunodeficient mouse by cell inoculation: tumor cells in logarithmic growth phase were collected, counted, and then re-suspended in 1×PBS. The concentration of the cell suspension was adjusted to 2.5-5×10^7/mL. Tumor cells were inoculated subcutaneously in the right back of the immunized normal mouse with a 1 mL syringe (4 gauge needle) at 5-10×10^6/0.2 mL/mouse.
(§5) Animal weight and tumor size were measured twice a week during the study. The animals were checked daily for morbility and etc. […] Mortality and clinical signs observed during the study were recorded in the raw data. […]
(§6) Tumor volume (TV) was calculated as: TV=a×b^2/2 wherein a and b represent the measured length and width of tumor, respectively.
(§7) Relative tumor volume (RTV) was calculated as: RTV=Vt/V1 wherein V1 was the tumor volume on the first day of dosing, and Vt was the tumor volume measured on day t after dosing.
(§8) Relative tumor proliferation rate T/C (%), as an indication of anti-tumor effectiveness, was calculated as: Relative tumor proliferation rate T/C (%)=(TRTV/CRTV)×100%, wherein TRTV was RTV in treatment group, and CRTV was RTV in vehicle control group. […]

[6] = test system: MDA-MB-231 triple-negative breast cancer tumor cell line; experiment: WST (CCK-8) anti-proliferation assay
Protocol: Cell plating: Anti-proliferation effects were detected by a CCK-8 (Cell Counting Kit-8) assay based on water soluble tetrazolium salt (WST).
The cells were seeded in 96-well plates. 95 μL complete medium was added to each negative control group, and 95 μL cell suspension in complete medium was added at a density of 5-10×10^4 cells/well to each well to be tested.
The MGC80-3 and SW620 used in the examples were purchased from the Cell Bank of the Shanghai Institute of Biochemistry and Cell Biology, Chinese Academy of Sciences. MDA-MB-231, PC-3, and NCI-H146 were available from the American Type Culture Collection (ATCC) under accession Nos. HTB-26, CRL-1435, and HTB-173, respectively. It should be noted that the cells used in the present disclosure are all available from ATCC. […]
Reading: At the end of the culture, for adherent cells, the old solution in the test wells was removed and 100 μl/well CCK-8 test solution (the corresponding medium containing 10% CCK-8, 5% FBS) was added. […]
The OD value was measured using a microplate reader (SpectraMax Plus 384, Molecular Devices, LLC., US) A450 nm. […] The percentage of cell viability was calculated by the following formula: (O.D. test well−O.D. blank control well)/(O.D. cell control well−O.D. blank control well)×100%.
The IC50 was calculated using the nonlinear regression data analysis method of Graphpad Prism 6.0 software.

[7] = test system: metastatic solid tumors; experiment: U.S. clinical trial as of Dec. 21, 2019; assay type: in vivo
Protocol: Three clinical trials (Phase I or Phase I/II) with similar study designs were conducted in the United States, Australia, and China. During the dose escalation phase, the patient received Compound 15 (10-400 mg) twice weekly or weekly intravenously for a 28-day treatment cycle. Tumor response assessment was performed every 2 cycles according to RECIST 1.1 criteria. The purpose of the study was to assess safety, maximum tolerated dose (MTD)/recommended phase II dose (RP2D), pharmacokinetics (PK), pharmacodynamics (PD), and the preliminary efficacy of Compound 15 as a single agent in metastatic solid tumors.
As of Dec. 21, 2019, 42 US patients with metastatic solid tumors (Table A) received Compound 15 treatment ranging from 10-400 mg in at least one 28-day cycle. The patients were treated in 2 cohorts. 31 patients in cohort 1 received Compound 15 twice a week (BIW) by intravenous (IV) infusion at a dose of 10 mg, 20 mg, 40 mg, 80 mg, 160 mg, 240 mg, 320 mg, or 400 mg; 11 patients in cohort 2 received Compound 15 once a week (QW) by IV infusion at a dose of 240 mg or 320 mg.

[8] = activity compared with first generation BCL-2 inhibitor
[9] = test system: metastatic solid tumors; experiment: Phase I or I/II clinical trials, pooled results as of Jan. 31, 2019; assay type: in vivo
Protocol: Three clinical trials (Phase I or Phase I/II) with similar study designs were conducted in the United States, Australia, and China. […] Tumor response assessment was performed every 2 cycles according to RECIST 1.1 criteria.

[10] = test system: human PC3 cell line prostate cancer xenograft; experiment: PC3 prostate cancer xenograft model; settings: Compound 15 100 mg/kg; docetaxel 8 mg/kg
Protocol: as §4, §5, §6, §7, §8

[11] = test system: subcutaneous NCI-H146 lung cancer xenograft; experiment: NCI-H146 lung cancer xenograft model (Example 8); assay type: in vivo, female SCID mice; settings: for RTV @day 21: Compound 15 20 mg/kg i.v. BIW, Irinotecan 5 mg/kg i.p. QW, Paclitaxel 10 mg/kg i.v. QW, Cisplatin 1 mg/kg i.p. Q4D; for mRECIST_best: best response during the treatment, PR partial response, CR complete response, SD stable disease, PD progressive disease; for T/C (%) @ day 21: doses as Table 6; for mRECIST_last: response on the last day of treatment, PR, CR, SD, PD
Protocol: The therapeutic efficacy of compound 15 alone and in multiple combinations in the treatment of subcutaneous NCI-H146 lung cancer xenograft model was evaluated.
1×10^7 NCI-H146 tumor cells were pre-treated in 0.1 mL of phosphate buffer and Matrigel (7:3) and inoculated into female SCID mice. The day of randomization was denoted as day 1. The treatment was initiated on day 1. The study was conducted in 8 groups of mice. See Table 6 for the mode of administration and doses. The entire study was taken down on day 21. The study was conducted in 40 mice. All the animals were randomized into 8 experimental groups.

[12] = test system: platelet; experiment: platelet toxicity; settings: versus first-generation BCL-2 inhibitors
[13] = test system: SCLC patient-derived xenograft LU5188; experiment: LU5188 SCLC patient-derived xenograft; assay type: in vivo, female NOD.SCID mice; settings: for T/C (%) @ day 21: doses as Table 3; for RTV @day 21: mean ± SEM, Compound 15 50 mg/kg i.v. BIW, Irinotecan 10 mg/kg i.p. Q4D, Paclitaxel 10 mg/kg i.v. Q4D
Protocol: as §2, §3

[14] = target: Mcl-1 (Homo sapiens, UniProt Q07820); experiment: binding to Mcl-1
Chain of Mcl-1 (Q07820 whole entry): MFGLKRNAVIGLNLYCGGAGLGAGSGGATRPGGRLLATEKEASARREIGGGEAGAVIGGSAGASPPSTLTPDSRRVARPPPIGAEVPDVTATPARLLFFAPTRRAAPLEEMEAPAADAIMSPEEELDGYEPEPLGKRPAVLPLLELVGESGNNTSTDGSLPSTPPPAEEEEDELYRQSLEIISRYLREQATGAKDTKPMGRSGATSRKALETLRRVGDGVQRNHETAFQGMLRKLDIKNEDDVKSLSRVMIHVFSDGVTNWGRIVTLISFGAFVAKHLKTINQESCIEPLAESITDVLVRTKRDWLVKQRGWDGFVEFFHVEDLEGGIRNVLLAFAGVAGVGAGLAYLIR

[15] = test system: NCI-N87 xenograft; experiment: NCI-N87 xenograft model, Compound 15 single agent; assay type: in vivo, nude mice; settings: for mouse tumor volume upon the end point: tail vein injection, 10 consecutive days
Protocol: The NCI-N87 tumor-bearing mice were treated with different doses of Compound 15 by tail vein injection for 10 consecutive days.
The inventors extracted proteins from the removed tumor tissues and prepared tissue sections.

[16] = target: Bcl-w (Homo sapiens, UniProt Q92843); experiment: binding to Bcl-w protein
Chain of Bcl-w (Q92843 whole entry): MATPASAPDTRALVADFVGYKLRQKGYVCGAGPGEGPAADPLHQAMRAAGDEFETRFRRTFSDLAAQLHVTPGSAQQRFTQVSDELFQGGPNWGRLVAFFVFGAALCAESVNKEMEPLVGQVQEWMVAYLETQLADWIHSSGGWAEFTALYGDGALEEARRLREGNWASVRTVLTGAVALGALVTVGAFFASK

[17] = target: Bcl-2 (Homo sapiens, UniProt P10415); experiment: binding to Bcl-2 protein
Chain of Bcl-2 (P10415 whole entry): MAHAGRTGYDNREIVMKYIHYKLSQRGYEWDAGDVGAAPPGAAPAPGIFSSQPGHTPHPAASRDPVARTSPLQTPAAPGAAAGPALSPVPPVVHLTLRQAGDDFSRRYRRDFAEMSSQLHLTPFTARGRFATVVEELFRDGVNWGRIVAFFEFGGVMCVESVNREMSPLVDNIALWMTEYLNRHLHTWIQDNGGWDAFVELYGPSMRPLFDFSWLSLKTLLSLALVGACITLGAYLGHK

[18] = target: Bcl-xl (Homo sapiens, UniProt Q07817); experiment: binding to Bcl-xl protein
Chain of Bcl-xl (Q07817 whole entry): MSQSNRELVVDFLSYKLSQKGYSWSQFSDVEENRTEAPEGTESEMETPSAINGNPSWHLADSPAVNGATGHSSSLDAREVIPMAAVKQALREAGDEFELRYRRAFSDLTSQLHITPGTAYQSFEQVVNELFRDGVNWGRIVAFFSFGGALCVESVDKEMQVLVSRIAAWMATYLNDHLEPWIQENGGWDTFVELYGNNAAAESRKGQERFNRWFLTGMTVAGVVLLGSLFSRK

[19] = test system: human MGC80-3 cell line gastric cancer xenograft; experiment: MGC80-3 gastric cancer xenograft model
Protocol: as §4
Animal weight and tumor size were measured twice a week during the study. The animals were checked daily for morbility and etc. At the time of routine monitoring, the animal were checked for any effects of tumor growth and treatments on behaviors such as mobility, food and water consumption, body weight gain/loss, eyes, hairing and any other abnormalities. Mortality and clinical signs observed during the study were recorded in the raw data. The dosing of the drugs and the measurement of mouse weight and tumor volume were all conducted in a laminar flow cabinet. According to requirements of the study protocol, plasma and tumor tissue were collected, weighed and photographed at the end of last dosing. Plasma and tumor samples were frozen at −80° C. for later use.
as §6, §7
Relative tumor proliferation rate T/C (%), as an indication of anti-tumor effectiveness, was calculated as: Relative tumor proliferation rate T/C (%)=(TRTV/CRTV)×100%, wherein TRTV was RTV in treatment group, and CRTV was RTV in vehicle control group.
Tumor remission rate (%) was calculated by dividing the number of tumor bearing mice that show SD (stable disease), PR (partial regression) and CR (complete regression) after treatment by the total number of mice in the group×100%. Change of body weight (%)=(measured body weight−body weight at randomization)/body weight at randomization×100%.

[20] = FIG. 6: Compound 15 100 mg/kg, docetaxel 12 mg/kg, cisplatin 3 mg/kg

O=c1[nH]cc(F)c(=O)[nH]1 [Compound 5-FU, 5-fluorouracil, reference compound]
apoptosis rate [1]: ~15% | mouse tumor volume upon the end point [2]: 2200 mm^3 | apoptosis rate [3]: 18%

Cc1c(S(C)(=O)=O)c(-c2cc(F)cc(N3CCN(c4ccc(NS(=O)(=O)c5ccc(N[C@H](CCN6CCC(C(=O)OCCP(=O)(O)O)CC6)CSc6ccccc6)c(S(=O)(=O)C(F)(F)F)c5)cc4)CC3)c2)c(-c2ccc(Cl)cc2)n1C(C)C [Compound 15, (R)-2-(1-(3-(4-(N-(4-(4-(3-(2-(4-chlorophenyl)-1-isopropyl-5-methyl-4-(methylsulfonyl)-1H-pyrrol-3-yl)-5-fluorophenyl)piperazin-1-yl)phenyl)sulfamoyl)-2-(trifluoromethylsulfonyl)phenylamino)-4-(phenylthio)butyl)piperidine-4-carbonyloxy)ethylphosphonic acid]
T/C (%) @ day 21 [4]: 136.8% | RTV @day 21 [4]: 9.75 ± 3.77 | T/C (%) [5]: 60.6% | IC50 ([6]; Homo sapiens, MDA-MB-231, 72 h, read-out: IC50 (A alone), MDA-MB-231, 72 hours): 2.6 µM | IC50 ([6]; read-out: IC50 (A alone), MDA-MB-231, 72 hours): 4.55 µM | patients with partial response (PR) ([7]; 36 patients with post-baseline tumor measurements): 3 | MTD/RP2D ([7]; QW): 240 mg | duration of PR ([7]; SCLC patient #002-001, 40 mg BIW): 19 cycles | accumulation ([7]; human, in vivo): No significant accumulation | time to resolution of platelet drop / thrombocytopenia ([7]; human, in vivo): 2 to 6 days | TRAE: alanine aminotransferase increased ([7]; human, in vivo, 28 day): 7.1% | TRAE: aspartate aminotransferase increased ([7]; human, in vivo, 28 day): 9.5% | TRAE: platelet count decreased ([7]; human, in vivo, 28 day): 14.3% | patients with ≥G3 treatment emergent adverse events (TRAEs) ([7]; human, in vivo, 28 day): 26.2% | Cmax and AUC versus dose ([7]; human, in vivo, iv): approximately dose proportional | activity relative to the first generation BCL-2 inhibitor [8]: about 10 times | mouse tumor volume upon the end point [2]: 1600 mm^3 | mouse body weight ([2]; mouse, in vivo): rebounded after a brief weight loss | patients with partial remission (PR) ([9]; 19 evaluated SCLC patients, US patient, dose of 40 mg): 1 | grade 3/4 AE: decreased lymphocyte count ([9]; 44 patients): 6.8% | grade 3/4 AE: elevated lipase ([9]; 44 patients): 6.8% | grade 3/4 AE: hyponatremia ([9]; 44 patients): 11.4% | tolerability ([9]; 44 patients, 7 dose levels, i.v. twice weekly or weekly): well tolerated at all tested dose levels | cases of stable disease in other tumor types ([9]; Australian studies, e.g. CRC): 5 | AUC and Cmax on day 1 versus dose ([9]; dose range of 10-160 mg): increased proportionally with dose | MTD ([9]; pooled analysis): had not been reached | T/C (%) [10]: 84.4% | RTV @day 21 [11]: 2.0 ± 0.3 | mRECIST_best ([11]; progressive disease): 1/5 PD | mRECIST_best ([11]; stable disease): 4/5 SD, | T/C (%) @ day 21 [11]: 70.0% | mRECIST_last ([11]; progressive disease): 4/5 PD | mRECIST_last ([11]; stable disease): 1/5 SD, | platelet toxicity reduced [12]: 10-30 times | T/C (%) @ day 21 [13]: 125.4% | RTV @day 21 [13]: 17.05 ± 6.59 | binding to Mcl-1 [14]: binds weakly | mouse tumor volume upon the end point ([15]; 25 mg/kg): 700 mm^3 | mouse tumor volume upon the end point ([15]; 50 mg/kg): 800 mm^3 | percentage of Ki67-positive cells ([15]; 100 mg/kg group): significantly lower than other groups | mouse tumor volume upon the end point ([15]; 100 mg/kg): about 400 mm^3 | cleaved-caspase3 and PARP-1 cleavage bands in the tumor tissue ([15]; 25, 50, 100 mg/kg): gradually increased as the dose increased | mouse body weight ([15]; among the four groups): no significant difference in body weight | weight and size of the xenograft tumors ([15]; as the dosing concentration increased): showed an evident trend of reduction | IC50 [16]: 9.3 nM | IC50 [17]: 1.6 nM | IC50 [18]: 4.4 nM

CCc1c2c(nc3ccc(OC(=O)N4CCC(N5CCCCC5)CC4)cc13)-c1cc3c(c(=O)n1C2)COC(=O)[C@]3(O)CC [Irinotecan, irinotecan]
T/C (%) @ day 21 [4]: 26.9% | RTV @day 21 [4]: 1.92 ± 0.24 | T/C (%) [5]: 29.9% | RTV @day 21 [11]: 1.0 ± 0.2 | mRECIST_best [11]: 3/5 PR and 2/5 SD | T/C (%) @ day 21 [11]: 34.4% | mRECIST_last [11]: 1/5 PR, and 3/5 SD, and 1/5 PD | T/C (%) @ day 21 [13]: 61.8% | RTV @day 21 [13]: 8.41 ± 2.49

CC(=O)O[C@H]1C(=O)[C@@]2(C)[C@H]([C@H](OC(=O)c3ccccc3)[C@]3(O)C[C@H](OC(=O)[C@H](O)[C@@H](NC(=O)c4ccccc4)c4ccccc4)C(C)=C1C3(C)C)[C@]1(OC(C)=O)CO[C@@H]1C[C@@H]2O [Paclitaxel, paclitaxel]
T/C (%) @ day 21 [4]: 32.6% | RTV @day 21 [4]: 2.33 ± 0.13 | RTV @day 21 [11]: 1.4 ± 0.4 | mRECIST_best [11]: 3/5 PR, and 2/5 SD | T/C (%) @ day 21 [11]: 48.4% | mRECIST_last [11]: 3/5 SD, and 2/5 PD | T/C (%) @ day 21 [13]: 151.1% | RTV @day 21 [13]: 20.55 ± 3.20

N.N.[Cl][Pt][Cl] [cisplatin]
T/C (%) [19, 20]: 65.0% | RTV @day 21 [11]: 2.6 ± 0.2 | mRECIST_best [11]: 2/5 SD, and 3/5 PD | T/C (%) @ day 21 [11]: 90.2% | mRECIST_last [11]: 5/5 PD

CC(=O)O[C@@]12CO[C@@H]1C[C@H](O)[C@@]1(C)C(=O)[C@H](O)C3=C(C)[C@@H](OC(=O)[C@H](O)[C@@H](NC(=O)OC(C)(C)C)c4ccccc4)C[C@@](O)([C@@H](OC(=O)c4ccccc4)[C@H]21)C3(C)C [docetaxel]
T/C (%) ([19]; FIG. 5: Compound 15 100 mg/kg, docetaxel 8 mg/kg): 54.5% | T/C (%) [19, 20]: 39.0% | T/C (%) [10]: 72.4%
